Source: patent US20250339409A1, “USES OF PAN BET INHIBITORS” (VYNE THERAPEUTICS INC., priority 2021, published 2025)

Test system: 92 target genes related to melanogenesis
Assay: RHE vitiligo model: gene expression analysis (TaqMan low density array, RT-qPCR)
Assay type: cell-based, human
Parameters: key to FC of XPC gene expression / FC of GNAS gene expression / FC of ATP7A gene expression / FC of TYR gene expression / FC of RAB27A gene expression / FC of KITLG gene expression / FC of ADCY2 gene expression: fold change in expression by comparative Ct (ΔΔCt) method
Protocol: At the end of the treatments, total RNAs is extracted from 3 epidermis per condition (n=3) using the Qiagen RNeasy kit (Qiagen; 74106). Epidermis is rinsed with cold PBS and lysed in the ad hoc buffer provided in the kit. Extraction is performed according to the supplier's recommendations. The collected RNAs is stored at −80° C.
The RNA concentration is determined by spectrophotometric measurement (QIAxpert, Qiagen) and the RNA quality is analyzed by capillarity electrophoresis (Agilent Bioanalyzer 2100-Agilent RNA 6000 Nano Kit, 5067-1511). The integrity of the total RNA is assessed by visualization of intact ribosomal RNA bands. For the total RNA from higher eukaryotes, the size of the ribosomal bands should be 1.9 kb for the 18S-RNA and 4.7 kb for the 28S-RNA. The intensity of the band corresponding to the 28S RNA must be greater than the intensity of the band corresponding to the 18S-RNA (left profile, in image below). Small and diffuse bands representing low molecular weight RNAs (tRNA and 5S ribosomal RNA) may be present. Degradation of the RNA is apparent as a smearing of ribosomal RNA bands and high molecular weight background as shown below (right profile, in image below).
Reverse transcription is performed with the high-capacity RNA-to-cDNA kit (Applied Biosystems; 438706) from total RNA according to the manufacturer's instructions. The cDNAs are then stored at −20° C. until use in polymerase chain reactions.
The microfluidic TaqMan qPCR arrays (or TaqMan low density arrays) were designed by StratiCELL and manufactured on demand by Applied Biosystems. […]
The TaqMan arrays are processed as described by the manufacturer's instructions (Micro Fluidic Card Getting Started Guide, Applied Biosystems). Briefly, cDNAs are mixed with a specific buffer (TaqMan Fast Advanced Master Mix, 4444557, Applied Biosystems) before being injected into the arrays and dispersed into the wells by centrifugation. Arrays are sealed and qPCRs are run using the Quantstudio7 Real-Time PCR System (Applied Biosystems) and its software (QuantStudio real time PCR Software v1.3. software, Applied Biosystems).
Threshold cycles (Ct) are obtained for each gene. Results files are exported from the qPCR device and analyzed using the DataAssist Software (v3.00, Applied Biosystems) designed to perform relative quantification of gene expression using the comparative Ct (ΔΔCt) method, through a combination of statistical analysis.
The data obtained for the conditions treated with the formulations is compared to the untreated condition or to the condition treated with the vehicle. The effects of the cytokine cocktail stimulation are analyzed as well by comparison of the data obtained for the untreated control (unstimulated) to the data obtained for the stimulated untreated control. The Ct values are normalized to the mean Ct of 3 housekeeping genes present on the array. The maximum Ct cut-off value was fixed at 36 cycles meaning that Ct values above 36 are not considered in the analysis. […]

[1] = Stimulated + BETi1 0.001% vs Stimulated + BETi1 vehicle, results after correction
[2] = Stimulated + BETi1 0.001% vs Stimulated + BETi1 vehicle, results after correction, inconclusive, Ct of some replicates above 36
[3] = Stimulated + BETi1 0.001% vs Stimulated + BETi1 vehicle, results as originally presented (transcription error)
[4] = Stimulated + BETi1 0.001% vs Stimulated + BETi1 vehicle, results as originally presented (transcription error), inconclusive, Ct of some replicates above 36
[5] = Stimulated + BETi1 1% vs Stimulated + BETi1 vehicle, results after correction
[6] = Stimulated + BETi1 1% vs Stimulated + BETi1 vehicle, results after correction, inconclusive, Ct of some replicates above 36
[7] = Stimulated + BETi1 1% vs Stimulated + BETi1 vehicle, results as originally presented (transcription error for some genes)
[8] = Stimulated + BETi1 1% vs Stimulated + BETi1 vehicle, results as originally presented (transcription error for some genes), inconclusive, Ct of some replicates above 36
[9] = Stimulated RHE treated with BETi1 at 0.01% vs BETi1 vehicle
[10] = Stimulated RHE treated with BETi1 at 0.1% vs BETi1 vehicle
[11] = stimulated RHE, vs stimulated + vehicle
[12] = stimulated RHE, vs stimulated + vehicle, listed as BETi1 0.1%
[13] = stimulated RHE, vs stimulated + vehicle, listed as BETi1 1%

Cn1cc(-c2cccc(O)c2Oc2ccccc2)c2cc[nH]c2c1=O [BETi1]
WNT signaling pathway upregulation, increase (1% concentration, relative to vehicle / stimulated control): 10 fold
FC of AP1M1 gene expression [1]: 0.7447
FC of APAF1 gene expression [1]: 1.5797
FC of BCL2 gene expression [1]: 0.7462
FC of HPS4 gene expression [1]: 0.6711
FC of POMC gene expression [1]: 0.5586
FC of ASIP gene expression [2]: 0.7104
FC of CALML6 gene expression [2]: 0.7104
FC of GNAO1 gene expression [2]: 0.7104
FC of AP1M1 gene expression [3]: 0.6303
FC of APAF1 gene expression [3]: 3.5532
FC of BCL2 gene expression [3]: 1.3312
FC of HPS4 gene expression [3]: 0.4147
FC of POMC gene expression [3]: 0.3574
FC of ASIP gene expression [4]: 0.6303
FC of GNAO1 gene expression [4]: 0.6303
FC of AIM1 gene expression [5]: 0.4502
FC of AP1S1 gene expression [5]: 0.6116
FC of ATP2A2 gene expression [5]: 0.2632
FC of ATP7A gene expression [5]: 0.4094
FC of BAD gene expression [5]: 0.2547
FC of BCL2 gene expression [5]: 0.5772
FC of CREBBP gene expression [5]: 0.3195
FC of DVL1 gene expression [5]: 0.4492
FC of EDN1 gene expression [5]: 0.0395
FC of EDNRB gene expression [5]: 0.1544
FC of GADD45A gene expression [5]: 0.2375
FC of GNAI1 gene expression [5]: 0.3672
FC of GNAS gene expression [5]: 0.4273
FC of HPS1 gene expression [5]: 0.5127
FC of HPS4 gene expression [5]: 0.3088
FC of IL1A gene expression [5]: 0.0124
FC of IL1B gene expression [5]: 0.0208
FC of KIT gene expression [5]: 0.6404
FC of MAPK14 gene expression [5]: 0.3927
FC of MLPH gene expression [5]: 0.3039
FC of MYO5A gene expression [5]: 0.4524
FC of OCA2 gene expression [5]: 0.293
FC of PCNA gene expression [5]: 7.0134
FC of POMC gene expression [5]: 0.1039
FC of PTGER3 gene expression [5]: 0.4259
FC of RAB3A gene expression [5]: 14.5685
FC of RAB27A gene expression [5]: 0.2763
FC of RAB32 gene expression [5]: 0.1471
FC of RAB38 gene expression [5]: 0.3579
FC of SLC24A5 gene expression [5]: 0.1051
FC of SNAP25 gene expression [5]: 0.2366
FC of SOX9 gene expression [5]: 0.0882
FC of SOX10 gene expression [5]: 0.4034
FC of STX6 gene expression [5]: 0.3683
FC of TYR gene expression [5]: 0.405
FC of USF1 gene expression [5]: 0.497
FC of WNT16 gene expression [5]: 10.0801
FC of XPC gene expression [5]: 1.6569
FC of ASIP gene expression [6]: 0.4753
FC of CALML6 gene expression [6]: 0.4753
FC of CAMK2A gene expression [6]: 0.4753
FC of GNAO1 gene expression [6]: 0.4753
FC of PTGER1 gene expression [6]: 0.4753
FC of AIM1 gene expression [7]: 0.4753
FC of AP1S1 gene expression [7]: 0.727
FC of ATP2A2 gene expression [7]: 0.293
FC of ATP7A gene expression [7]: 0.4273
FC of BAD gene expression [7]: 0.2763
FC of BCL2 gene expression [7]: 0.6404
FC of CREBBP gene expression [7]: 0.3672
FC of DVL1 gene expression [7]: 0.4524
FC of EDN1 gene expression [7]: 0.1039
FC of EDNRB gene expression [7]: 0.2375
FC of GADD45A gene expression [7]: 0.2632
FC of GNAI1 gene expression [7]: 0.3927
FC of GNAS gene expression [7]: 0.4502
FC of HPS1 gene expression [7]: 0.6116
FC of HPS4 gene expression [7]: 0.3579
FC of IL1A gene expression [7]: 0.0395
FC of IL1B gene expression [7]: 0.0882
FC of KIT gene expression [7]: 1.6569
FC of MAPK14 gene expression [7]: 0.405
FC of MLPH gene expression [7]: 0.3195
FC of MYO5A gene expression [7]: 0.4753
FC of OCA2 gene expression [7]: 0.3088
FC of PCNA gene expression [7]: 7.0134
FC of POMC gene expression [7]: 0.1471
FC of PTGER3 gene expression [7]: 0.4492
FC of RAB3A gene expression [7]: 14.5685
FC of RAB27A gene expression [7]: 0.3039
FC of RAB32 gene expression [7]: 0.2366
FC of RAB38 gene expression [7]: 0.3683
FC of SLC24A5 gene expression [7]: 0.1544
FC of SNAP25 gene expression [7]: 0.2547
FC of SOX9 gene expression [7]: 0.1051
FC of SOX10 gene expression [7]: 0.4094
FC of STX6 gene expression [7]: 0.4034
FC of TYR gene expression [7]: 0.4259
FC of USF1 gene expression [7]: 0.5772
FC of WNT16 gene expression [7]: 10.0801
FC of XPC gene expression [7]: 1.8367
FC of ASIP gene expression [8]: 0.5127
FC of CALML6 gene expression [8]: 0.497
FC of CAMK2A gene expression [8]: 0.4753
FC of GNAO1 gene expression [8]: 0.4753
FC of PTGER1 gene expression [8]: 0.4753
FC of AP1S1 gene expression [9]: 1.3312
FC of ASIP gene expression [9]: 0.6303
FC of CALML6 gene expression [9]: 0.6303
FC of CAMK2A gene expression [9]: 0.6303
FC of GADD45A gene expression [9]: 0.3574
FC of GNAO1 gene expression [9]: 0.6303
FC of POMC gene expression [9]: 0.4147
FC of RAB3A gene expression [9]: 3.5532
FC of ADCY2 gene expression [10]: 0.1137
FC of AP1M1 gene expression [10]: 0.6311
FC of ATP2A2 gene expression [10]: 0.2769
FC of BAD gene expression [10]: 0.2735
FC of CALML6 gene expression [10]: 0.5429
FC of CAMK2A gene expression [10]: 0.5043
FC of EDN1 gene expression [10]: 0.0413
FC of EDNRB gene expression [10]: 0.2737
FC of GADD45A gene expression [10]: 0.1803
FC of GNAI1 gene expression [10]: 0.5815
FC of HPS4 gene expression [10]: 0.4224
FC of IL1A gene expression [10]: 0.0454
FC of IL1B gene expression [10]: 0.0727
FC of KITLG gene expression [10]: 1.8415
FC of MAPK14 gene expression [10]: 0.4724
FC of MLPH gene expression [10]: 0.355
FC of MYO5A gene expression [10]: 0.5462
FC of PCNA gene expression [10]: 3.2615
FC of POMC gene expression [10]: 0.1665
FC of PPIA gene expression [10]: 1.6969
FC of PTGER3 gene expression [10]: 0.4799
FC of RAB3A gene expression [10]: 10.8195
FC of RAB32 gene expression [10]: 0.2378
FC of RAB38 gene expression [10]: 0.5643
FC of SLC24A5 gene expression [10]: 0.272
FC of SOX9 gene expression [10]: 0.1155
FC of SOX10 gene expression [10]: 0.4196
FC of STX6 gene expression [10]: 0.4214
FC of WNT16 gene expression [10]: 8.7922
RQ (fold change) AP1S1 [11]: 1.3312
RQ (fold change) APAF1 [11]: 1.5797
RQ (fold change) HSP4 [11]: 0.6711
RQ (fold change) KITLG [11]: 1.8415
RQ (fold change) POMC [11]: 0.5586
RQ (fold change) PPIA [11]: 1.6969
RQ (fold change) XPC [11]: 1.6569
RQ (fold change) RAB3A (stimulated RHE, vs stimulated + vehicle, listed as BETi1 0.01%): 3.5532
RQ (fold change) EDN1 [12]: 0.0413
RQ (fold change) IL1A [12]: 0.0454
RQ (fold change) IL1B [12]: 0.0727
RQ (fold change) PCNA [12]: 3.2615
RQ (fold change) RAB3A [12]: 10.8195
RQ (fold change) SOX9 [12]: 0.1155
RQ (fold change) WNT16 [12]: 8.7922
RQ (fold change) EDN1 [13]: 0.0395
RQ (fold change) IL1A [13]: 0.0124
RQ (fold change) IL1B [13]: 0.0208
RQ (fold change) PCNA [13]: 7.0134
RQ (fold change) RAB3A [13]: 14.5685
RQ (fold change) SOX9 [13]: 0.0882
RQ (fold change) WNT16 [13]: 10.0801
